The subject of data set [1] is smad2. The data set is described as follows: AAV6-GFP-U6-mSMAD2_shRNA treatment of Min6 cells, Western blot and RT-PCR. It counts as cell-based. On the procedure: (§1) FIGS. 19A-19C. AAV6-GFP-U6-mSMAD2_shRNA treatment in vitro blocks smad2 expression in MIN6 and Beta-TC cell lines. […] Phospho smad2 expression is nearly absent in Min6 cells after AAV6-GFP-U6-mSMAD2_shRNA treatment (B). […] Similar experiments can be performed in human beta cell lines (EndoC-bH5, Human Cell Design) and primary human beta cells.
(§2) FIGS. 19A-19C show results from experiments where Min6 cells or beta-TC cells were treated with AAV6-GFP-U6-mSMAD2_shRNA for three days. A lysate was prepared from total or sorted cells. RT-PCR, and Western blot for Smad2, phospho Smad2 and Beta-actin was performed. […] Phospho smad2 expression is nearly absent in Min6 cells after AAV6-GFP-U6-mSMAD2_shRNA treatment (FIG. 19B).

Data set [2] has as its system smad2. As to the kind of experiment: AAV6-GFP-U6-mSMAD2_shRNA treatment of beta-TC cells, Western blot. The conditions noted are these: beta-TC cells sorted after transfection, treated for three days, Western blot (FIG. 19A). It counts as cell-based. Here is the method: as §1, §2

As to “AAV6-GFP-U6-mSMAD2_shRNA: AAV6 construct with smad2 shRNA sequence SEQ ID NO: 34, targeting sequence SEQ ID NO: 35 (DNA CCGGTGGTGTTCAATCGCATACTATCTCGAGATAGTATGCGATTGAACACCATTTTTG)”, the smad2 expression entry in data set [1] (Min6 cells sorted after transfection, treated for three days, Western blot (FIG. 19A)) is on record as “near complete ablation”; in data set [2], “near complete ablation”. Besides, in data set [1] (Min6 cells, treated for three days, Western blot (FIG. 19B)), the “Phospho smad2 expression” value is recorded as “nearly absent”. The “RT-PCR quantification of MIN6 mRNA (smad2)” value in data set [1] (sorted MIN6 cells, treated for three days (FIG. 19C)) is listed as “complete absence”.
